Experimental findings from patent US9932335B2 (priority 2013, dated 2018) are described below.

The target in one assay is T1, M1 receptor (Rattus norvegicus, UniProt P08482).
T1 construct: expressed in transfected cells
T1 sequence (P08482 1-460): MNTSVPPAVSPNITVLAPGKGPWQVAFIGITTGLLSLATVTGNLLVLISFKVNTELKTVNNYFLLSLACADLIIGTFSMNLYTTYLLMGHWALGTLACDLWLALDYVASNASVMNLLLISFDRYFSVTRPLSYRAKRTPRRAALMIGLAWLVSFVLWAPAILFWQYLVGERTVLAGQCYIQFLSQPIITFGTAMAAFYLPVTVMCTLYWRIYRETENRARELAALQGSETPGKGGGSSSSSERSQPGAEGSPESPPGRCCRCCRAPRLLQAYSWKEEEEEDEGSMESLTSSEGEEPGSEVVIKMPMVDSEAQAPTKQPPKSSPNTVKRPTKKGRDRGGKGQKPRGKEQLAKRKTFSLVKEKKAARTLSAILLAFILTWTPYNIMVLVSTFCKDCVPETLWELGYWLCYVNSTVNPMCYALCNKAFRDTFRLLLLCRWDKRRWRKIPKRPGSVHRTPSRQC
The assay can be described thus: M1 PAM assay (FLIPR intracellular calcium), rat. In kind it is cell-based.

A further assay addresses T2, human M1 (Homo sapiens, UniProt P11229).
T2 construct: expressed in transfected cells; host or cells: CHO cells
T2 sequence (P11229 1-460): T1 sequence (P08482 1-460) with V5A, S254T, S309P, K320R, G337A, V413I
The assay can be described thus: M1 PAM assay (FLIPR intracellular calcium, CHO human M1). Type of assay: cell-based. The procedure, abridged:
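CHO cells expressing human M1 were loaded with Fluo-4AM for 60 min at 37 °C in HBSS/20 mM HEPES/2 mM probenecid, pH 7.4, and intracellular Ca2+ was read by FLIPR (1% DMSO final). Agonism was assessed after 2 min compound preincubation against 30 nM acetylcholine. For PAM activity, an acetylcholine EC20 was added after the 2 min preincubation and read 2 min later.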

Structures are written as SMILES. Where a chain is given by its changes, count along the chain named. Like-named read-outs stand apart in the source and are kept apart here.

As to `Cn1cc(-c2ccc(Cn3cc(C(=O)NCc4cccnc4)c4ncccc43)c(F)c2)cn1` [Example 64], the values for the EC50 on M1 receptor and at human M1 were 1060 nM and 261 nM, respectively.
Take `Cn1cc(-c2ccc(Cn3cc(C(=O)NCC4(O)CC4)c4ncccc43)c(F)c2)cn1` [Example 65, 1-(2-fluoro-4-(1-methyl-1H-pyrazol-4-yl)benzyl)-N-((1-hydroxycyclopropyl)methyl)-1H-pyrrolo[3,2-b]pyridine-3-carboxamide]: the EC50 was 1390 nM at M1 receptor (rat, modulator activity with EC20 of acetylcholine, FLIPR Ca2+, read-out: EC50 rat PAM) and 315 nM at human M1 (human M1 in CHO cells, modulator activity with EC20 of acetylcholine, FLIPR Ca2+, read-out: EC50 h PAM).
